# From patent US10493087B2, “Sialylation-increasing therapies for diseases associated with oxidative stress” (THE UNITED STATES OF AMERICA, AS REPRESENTED BY THE …, priority 2015, dated 2019)
# Columns and labels:
# GNE Myopathy myotubes [1] = experiment: Intracellular ROS (DCF fluorescence) in cultured myotubes; format: cell-based, mice; conditions: GNE Myopathy myotubes treated with 5 mM for 72 h; mean±SEM; untreated 1113±30, littermate controls 115±15
# Experimental: (§1) Cell cultures and myotubes analysis: Myocytes from Gne^−/−hGNED176V-Tg mice and littermate controls were proliferated in DMEM containing 20% fetal bovine serum and 1% chicken embryo extracts in a 5% CO2 and induced to differentiation in a serum free medium, OPTIPRO™ SFM (Gibco), to make the cells hyposialylated. Where indicated, myotubes were treated with 5 mM NeuAc (Japan Food and Liquor Alliance) or 5 mM NAC (Sigma) for 72 h.
# For the analysis of intracellular ROS, a popular fluorescence-based probe, 2′,7′-dichlorodihydrofluorescein diacetate (DCFH-DA) (Wang et al., Free Radical Biology and Medicine. 1999; 27:612-616; Halliwell and Whiteman, Br J Pharmacol. 2004; 142:231-255) was used. Cells were loaded with 5 μM DCFH-DA (Invitrogen) in PBS for an hour and recovered with phenol red-free DMEM (Gibco) for 30 min at 37° C. in a 5% CO2 incubator. Then the cells were placed in a CYTOFLUOR® Series 4000 multi-well fluorescence plate reader (PerSeptive Biosystems) with temperature maintained at 37° C. The excitation filter was set at 485 nm and the emission filter was set at 530 nm. The fluorescence from each well was captured and recorded.
# GNE Myopathy myotubes [2] = experiment: ROS generation under pro-oxidants (H2O2 or menadione), ΔDCF fluorescence; format: cell-based, mice
# Experimental: as §1
# To evaluate the ROS generation under pro-oxidants, myotubes cultured in each condition were loaded with 5 μM DCFH-DA for 1 h and recovered in the different concentrations of H2O2 or menadione-containing medium. After 30 min incubation in dark at 37° C., the microplate containing cells with pro-oxidants were placed in a plate reader and fluorescence was captured at every 5 min until it reached a plateau. Maximum fluorescence of each well was used for analysis.
# GNE Myopathy myotubes [3] = experiment: Cell viability assay under pro-oxidants (propidium iodide/Hoechst co-staining); format: cell-based, mice; conditions: treated GNE Myopathy myotubes under menadione exposure
# Experimental: as §1
# For the cell viability assay, myotubes were exposed to H2O2 for 24 h and to menadione for 6 h before staining. Nuclear staining with Hoechst 33342 (Thermo Scientific) and propidium iodide (PI) (Dojindo) was used for morphological assessment of apoptosis by fluorescence microscopy (Lee and Shacter, Journal of Biological Chemistry. 1999; 274:19792-19798). Minimum 200 nuclei were counted and cell viability was calculated by the exclusion of PI-stained nuclei from Hoechst 33342-stained nuclei.
# Gne−/−hGNED176V-Tg mice = experiment: Motor performance analysis (treadmill performance and endurance tests); format: in vivo; conditions: vs untreated
# Experimental: N-Acetylcysteine (NAC) Treatment Protocols: […] were randomly divided into high dose NAC (n=13), low dose NAC (n=13), or untreated control (n=17) groups. […] There was no difference in water consumption between mice receiving NAC supplemented water or regular drinking water. […] Three littermates groups (high dose NAC; n=7, low dose NAC; n=7, or untreated control; n=6) were treated in the same way. Motor performance analysis: The motor performance was evaluated using treadmill exercise as previously reported (9, 10) with minor modification. Briefly, after 7 days of acclimation on the treadmill, two exercise tests were performed on separate days. […] The time of exhaustion was used to calculate the total distance of the mice ran during the exercise. The endurance exercise consisted of a 60-min treadmill run at 20 m/min with a […] incline, during which the number of beam breaks or rests were recorded. Both tests were done twice with 2 days rest in between.
# GNE Myopathy muscle = experiment: Gene expression analysis of muscle (quantitative RT-PCR and microarray); format: in vivo, mice
# Experimental: Quantitative RT-PCR and microarray analysis: […] Microarray experiments were carried out using a […] Mouse Whole Genome Bioarray (Applied Microarrays Inc.) at Filgen Inc. The arrays were scanned using a […] Array Scanner (Molecular Devices Inc.). The data were analyzed by using Microarray Data Analysis Tool version 3.2 (Filgen Inc.). For quantitative PCR, TAQMAN® probes were used in combination with the TAQMAN® Gene Expression Master Mix (Applied Biosystems) in a total reaction of 20 μl. STEPONEPLUSTM Real-Time PCR System (Applied Biosystems) was used to quantify mRNA expression. mRNA relative expression was normalized to internal control (GAPDH) and determined as fold change in the average expression value of littermate muscles. The TAQMAN® probes used were as follows: F-box protein 32 (Fbxo32), Mm00499523_m1; tripartite motif-containing 63 (Trim63), Mm01185221_m1; Sulfiredoxin1 homolog (Srxn1), Mm00769566_m1; metallothionein 1 (Mt1), Mm00496660_g1; metallothionein 2 (Mt2), Mm00809556_s1; metallothionein 3 (Mt3), Mm00496661_g1; LC3b, Mm00782868_sH. N-Acetylcysteine (NAC) Treatment Protocols: […] were randomly divided into high dose NAC (n=13), low dose NAC (n=13), or untreated control (n=17) groups. […] There was no difference in water consumption between mice receiving NAC supplemented water or regular drinking water. […] Three littermates groups (high dose NAC; n=7, low dose NAC; n=7, or untreated control; n=6) were treated in the same way.
# β-amyloid = β-amyloid expression by ELISA in muscle homogenates; format: in vivo, mice; conditions: after NAC treatment
# [4] = HD and LD treated GNE Myopathy muscles
compound,measurement,setting,value
"CC(=O)N[C@@H](CS)C(=O)O [NAC, N-acetylcysteine]",Mean DCF fluorescence (intracellular ROS generation),GNE Myopathy myotubes [1],191±10 AFU
same,Protective effect in the high oxidative stress condition,"GNE Myopathy myotubes [2]; GNE Myopathy myotubes, H2O2 or menadione, more evident for menadione",worked effectively
same,ΔDCF fluorescence compared to littermate myotubes,GNE Myopathy myotubes [2]; treated GNE Myopathy myotubes under menadione exposure,comparable
same,Cell viability compared to littermate myotubes,GNE Myopathy myotubes [3],even better
same,Treadmill performance and endurance tests,Gne−/−hGNED176V-Tg mice; high dose (HD) 1.5 g/kg per day in drinking water,significantly improved
same,Motor function (treadmill),Gne−/−hGNED176V-Tg mice; low dose (LD) 0.15 g/kg per day in drinking water,better motor function
same,Upregulation of atrogenes (atrogin-1 and MuRF1),GNE Myopathy muscle; [4],recovered
same,Upregulation of oxidative stress responsive genes (MT1 and MT2),GNE Myopathy muscle; [4],recovered
same,LC3b expression (marker of autophagy),"GNE Myopathy muscle; treated GNE Myopathy muscles, RT-PCR and microarray",recovered as well
same,β-amyloid expression by ELISA in muscle homogenates,β-amyloid,decreased
